# Laboratory results reported in patent publication US20230082358A1, “3D PRINTED UV CROSSLINKING MASKS” (University of Maryland, College Park, priority 2021, published 2023).
# Key:
# Type in all cases: cell-based
# [1] = test system: Human umbilical artery endothelial cells (HUAECs); experiment: HUAECs heparin release study, XTT
# Method: Human umbilical vein endothelial cells (HUVECs) (ThermoFisher Scientific, Waltham, Mass.) were seeded in 48-well plates at a density of 10,000 cells/well in 1 mL of Medium 200 (with manufacturer's required Low Serum Growth Supplement LSGS, ThermoFisher Scientific). Cells were left overnight to adhere before medium was replaced with 1 mL of treatment medium, which contained 0.1, 1, 10, 100, or 1000 μg/mL heparin in Medium 200 (with LSGS), while the control was medium only. The medium was replaced daily for the duration of this study. The electron coupling and XTT labeling reagents from the Cell Proliferation Kit II (XTT) (Roche, Mannheim, Germany) were mixed according to the manufacturer's protocol and added to the cell medium in a ratio of 1 to 2. […] The absorbance was measured with a Spark Multimode Microplate Reader (Tecan, Männedorf, Switzerland). Net absorbance was calculated (A475-A650) for each sample and XTT fold change was calculated by normalizing the net absorbance to that at 4 h.
# (§1) Human umbilical artery endothelial cells (HUAECs) (Sigma-Aldrich) were seeded in MesoEndo Cell Growth Medium (Sigma-Aldrich) with the appropriate heparin treatment. […] Immunostaining and quantification was completed as described above at 48 h. Tissue factor pathway inhibitor (TFPI) was quantified with DuoSet ELISA kit (R&D Systems, Minneapolis, Minn.) according to the manufacturer's protocol. […]
# [2] = test system: Human umbilical artery endothelial cells (HUAECs); experiment: HUAECs heparin release study, TFPI ELISA; settings: for release of TFPI: after 48 h, comparable to 0 μg/mL, more than profiles A and B
# Method: Human umbilical artery endothelial cells (HUAECs) (Sigma-Aldrich) were seeded in MesoEndo Cell Growth Medium (Sigma-Aldrich) with the appropriate heparin treatment. For XTT and TFPI ELISA measurements, cells were seeded in a 24-well plate at a density of 150,000 cells/well in 1.8 mL of medium, while for immunostaining, cells were seeded in a 96-well plate at a density of 25,000 cells/well in 300 µL of medium. Treatment medium contained the heparin concentrations detailed in Table 1. One control group was medium only, while the other control group contained 30 μg/mL heparin, an estimate of heparin concentration during surgery. The medium was replaced at 8, 24, and 48 h. XTT was conducted as described above at 24 and 48 h. Immunostaining and quantification was completed as described above at 48 h. Tissue factor pathway inhibitor (TFPI) was quantified with DuoSet ELISA kit (R&D Systems, Minneapolis, Minn.) according to the manufacturer's protocol. The ladder and all samples were run in triplicate (n=9).
# [3] = test system: Human umbilical vein endothelial cells (HUVECs); experiment: Cell metabolic activity assay (XTT), HUVECs; settings: 100 and 1000 μg/mL heparin; 24, 72 and 120 h; p<0.05
# Method: Human umbilical vein endothelial cells (HUVECs) (ThermoFisher Scientific, Waltham, Mass.) were seeded in 48-well plates at a density of 10,000 cells/well in 1 mL of Medium 200 (with manufacturer's required Low Serum Growth Supplement LSGS, ThermoFisher Scientific). Cells were left overnight to adhere before medium was replaced with 1 mL of treatment medium, which contained 0.1, 1, 10, 100, or 1000 μg/mL heparin in Medium 200 (with LSGS), while the control was medium only. The medium was replaced daily for the duration of this study. The electron coupling and XTT labeling reagents from the Cell Proliferation Kit II (XTT) (Roche, Mannheim, Germany) were mixed according to the manufacturer's protocol and added to the cell medium in a ratio of 1 to 2. Cell medium was removed from the wells and the XTT solution was added. It was incubated for 4 h and 100 μL was extracted in triplicate (n=9). The absorbance was measured with a Spark Multimode Microplate Reader (Tecan, Männedorf, Switzerland). Net absorbance was calculated (A475-A650) for each sample and XTT fold change was calculated by normalizing the net absorbance to that at 4 h.
# [4] = test system: Human umbilical vein endothelial cells (HUVECs); experiment: Actin immunostaining / adhesion, HUVECs; settings: 72 h treatment
# Method: (§2) HUVECs were treated in culture with treatment medium for 72 h. Treatment medium contained 0.1, 1, 10, 100, or 1000 μg/mL heparin in Medium 200 (with LSGS), while the control was medium only. The medium was replaced daily for the duration of this study. Cells were seeded in 96-well plate at a density of 30,000 cells/well in 200 μL of Medium 200 (with LSGS). Cells were left to adhere for 2 h before the medium was removed. Cells were fixed with 10% formalin and permeabilized. Wells were stained for 1 h with Alexa Fluor 488 Phalloidin (1:100, 100 μL, A12379, Invitrogen). Then the cells were stained with DAPI solution (3 μg/mL in PBS) for 10 min. Wells were imaged with an Eclipse Ti2 microscope under FITC excitation (465-495 nm) and emission (515-555 nm) and DAPI excitation (340-380 nm) and emission (435-485 nm). MATLAB was used to quantify the area of the green channel and count the cells in the blue channel for 3 images of each of the 3 wells (n=9) to calculate a ratio of F-actin area to number of cells.
# [5] = test system: Human umbilical vein endothelial cells (HUVECs); experiment: vWF immunostaining, HUVECs; settings: higher heparin concentrations; up to 120 h
# Method: (§3) HUVECs were seeded in 96-well plates at a density of 3,500 cells/well in 235 μL of Medium 200 (with LSGS). Cells were left overnight to adhere before medium was replaced with 200 μL of treatment medium, which contained 0.1, 1, 10, 100, or 1000 μg/mL heparin in Medium 200 (with LSGS), while the control was medium only. The medium was replaced daily for the duration of this study. Cells were fixed with 10% formalin and permeabilized. Wells were treated overnight with anti-von Willebrand factor antibody (1:200, 100 μL, ab9378, Abcam, Cambridge, Mass.). The secondary antibody used was Alexa Fluor 633 (4 μg/mL, Invitrogen, Carlsbad, Calif.). Then the cells were stained with DAPI solution (3 μg/mL in PBS) for 10 min. Wells were imaged with an Eclipse Ti2 microscope (Nikon, Tokyo, Japan) under Cy5 excitation (625-650 nm) and emission (670 nm) and DAPI excitation (340-380 nm) and emission (435-485 nm). MATLAB was used to quantify the intensity of the red channel and count the cells in the blue channel for 3 images of each of the 3 wells (n=9) to calculate a ratio of vWF intensity to number of cells.
# [6] = test system: Human umbilical artery endothelial cells (HUAECs); experiment: HUAECs heparin release study, phalloidin (F-actin) staining; settings: heparin profiles A, B, C; 48 h; p>0.05
# Method: as §2, §1
# [7] = test system: Human umbilical vein endothelial cells (HUVECs); experiment: Scratch assay, HUVECs; settings: p<0.05
# Method: HUVECs were treated in culture with treatment medium for 48 h. Treatment medium contained 0.1, 1, 10, 100, or 1000 μg/mL heparin in Medium 200 (with LSGS), while the control was medium only. The medium was replaced daily for the duration of this study. A 48-well plate was treated for 45 min with 200 μL of 0.1% wt/vol porcine gelatin (Sigma-Aldrich, St. Louis, Mo.) in DI water at 37° C. Cells were seeded in the well plate at a density of 100,000 cells/well in 800 μL of Medium 200 (with LSGS). Cells were left to adhere for 24 h before the medium was replaced. Scratches were made with a 200 μL pipette tip. Cells were imaged for 1 to 16 h after the scratches were made. ImageJ was used to quantify the gap distance in one image for each well (n=6). Gap closure (%) was reported as
# where lo is the original gap length and lt is the gap length at a given time. The gap closure speed was defined as the slope of gap length curve with respect to time and was normalized to that of the 0 μg/mL group.
# [8] = test system: Human umbilical artery endothelial cells (HUAECs); experiment: HUAECs heparin release study, vWF immunostaining; settings: 48 h, p<0.05
# Method: as §3, with “Wells were imaged with an Eclipse Ti2 microscope (Nikon, Tokyo, Japan) under Cy5 excitation (625-650 nm) and emission (670 nm) and DAPI excitation (340-380 nm) and emission (435-485 nm).” left out
# as §1
substance,measurement,setting,value
heparin,XTT metabolic activity of HUAECs at 48 h (normalized to 0 μg/mL),[1]; heparin profile A (246/122/118 μg/mL at 0-8/8-24/24-48 h),reduces
same,XTT metabolic activity and vWF expression of HUAECs,[1]; slower heparin profiles B and C,unaffected
same,release of TFPI,[2]; 30 μg/mL heparin,highest release of TFPI
same,tissue factor pathway inhibitor (TFPI) produced,"[2]; heparin profile A, after 24 and 48 h, p<0.05",significantly less
same,release of TFPI,[2]; heparin profile C,highest release of TFPI
same,XTT metabolic activity compared to 0 μg/mL heparin,[3],significantly decreased
same,"number of cells adhered after 2 h, compared to 0 μg/mL","[4]; 1000 μg/mL heparin, p<0.05",significantly lower
same,"ratio of F-actin area to number of cells, compared to 0 μg/mL","[4]; 1000 μg/mL heparin, p<0.05",significantly lower
same,number of cells adhered after 2 h,[4]; 0.1 and 1 μg/mL heparin,support
same,ratio of F-actin area to number of cells,[4]; 0.1 and 1 μg/mL heparin,support
same,vWF expression (ratio of vWF intensity to number of cells),[5],upward trend
same,phalloidin (F-actin) area ratio,[6],not impacted
same,gap closure over 16 h,"[7]; 1, 10, 100 and 1000 μg/mL heparin",significantly decreases
same,gap closure speed (normalized to 0 μg/mL),"[7]; 10, 100 and 1000 μg/mL heparin",significantly decreases
same,"vWF intensity, profile A versus profile C",[8],higher
